In patent US20070118999A1, “Compositions suitable for the treatment of hair comprising chelants and methods for reducing oxidative hair damage” (The Procter & Gamble Company, priority 2001, published 2007):

Assays:
[1] = 1:1 complexes, fully deprotonated chelants; 25deg, 0.1M ionic strength; cited from earlier work
[2] = 5-Cycle Oxidative Hair Treatment Protocol with FT-IR Damage Assessing Protocol; set-up: species or system human; settings: for Damage benefit vs EDTA 2% / Damage after 5 cycles (cysteic acid units): 5 bleaching cycles, pH 10, 1.9% EDDS, 2.0% HEDP, 2.65% DTPA, 3.8% DTPMP; for Damage after 5 cycles (cysteic acid units): 2% EDTA, sodium salts used; for oxidative hair damage prevention (in words): real conditions of use: pH 10, non-deionized water with Cu^2+ and Ca^2+
Experimental: A bleaching composition comprising the chelant to be tested is prepared by mixing in equal weight amounts a hydrogen peroxide emulsion base and an alkaline (high pH) emulsion base. The hydrogen peroxide emulsion base contains: […] 2 g of the bleaching composition per g of hair to be treated was applied on the hair switches and massaged in thoroughly. The hair switches were then wrapped in a plastic film and put in an oven at 30° C. […] The excess water was then squeezed out of the hair, and the hair dried with a fan. […] Prell® shampoo was using during these tests. This Oxidative Hair Treatment Protocol can be repeated several times. When damage is measured according to the FT-IR Damage Assessing Protocol (described below) the Oxidative Hair Treatment Protocol is preferably repeated 5 times and this process is described as a 5-Cycle Oxidative Hair Treatment Protocol. Damage caused to the hair was assessed by the FT-IR (Fourier Transform Infrared) method, which has been established to be suitable for studying the effects of oxidative treatments on hair (Strassburger, J., J. Soc. Cosmet. Chem., 36, 61-74 (1985); Joy, M. & Lewis, D. M., Int. J. Cosmet. Sci., 13, 249-261 (1991); Signori, V. & Lewis, D. M., Int. J. Cosmet. Sci., 19, 1-13 (1997)). In particular, these authors have shown that the method is suitable for quantifying the amount of cysteic acid that is produced from the oxidation of cystine. In general, the oxidation of cystine is thought to be a suitable marker by which to monitor the overall oxidation of the keratinous part of the fiber. Signori & Lewis (D. M., Int. J. Cosmet. […] They have shown that this technique is more suitable than using the FT-IR method in simple transmission or microscope modes. […] The detailed description of the method used for testing the different damage inhibitors follows thereafter: […] In this method, hair switches of various sizes and colours can be used. The switches were […] per cm) in order to minimize variations in surface area of contact between readings. The Oxidative Hair Treatment Protocol described above was repeated for 5 cycles to mimic the behavior of hair after repeated bleaching cycles. Following this treatment, four readings per switch were taken ( 1/3 and 2/3s down the switch on both sides), and an average calculated. Backgrounds were collected every 4 readings, and an ATR cell pressure of IN/m was employed. The cell was cleaned with ethanol between each reading, and a contamination check performed using the monitor ratio mode of the instrument. As prescribed by Signori & Lewis in 1997, a normalized double derivative analysis routine was used. […] This normalized absorbance was then twice derivatised using a 13 point averaging. […] The following instrumental conditions were employed: […] The corresponding weight percentage is indicated in the first line of the table below. The tri-sodium salt of EDDS, tetra-sodium salt of EDTA, di-sodium salt of HEDP, penta-sodium salt of DTPA and tetra-sodium salt of DTPMP were used. EDTA and DTPA are commonly used in hair care compositions. HEDP was cited in U.S. Pat. […] DPTMP is another phosphonate chelant. […] Damage and lightening effects were assessed after 5 cycles according to the test method described above (“Oxidative hair treatment protocol”). Human hair is often bleached or dyed 5 times or more during its life, which makes this 5 cycle test very meaningful.

[3] = 1:1 complexes, fully deprotonated chelants; 25deg, 0.1M ionic strength; cited from earlier work; remark: listed apart in the source
[4] = Hydrogen Peroxide Decomposition Ratio Measurement Protocol
Experimental: The Hydrogen Peroxide Decomposition Ratio Measurement Protocol is defined as follows: 6.0% by weight of concentrated ammonium hydroxide (30% active ammonia) is added to deionised water and the pH of the solution is adjusted to 10 using acetic acid. 300 ppm of copper sulphate and 0.026M of the chelant to be tested are added to said composition. […] The initial level of hydrogen peroxide is measured at this moment (t=0); the final level of hydrogen peroxide is measured after 30 minutes. The value of the ratio of the hydrogen peroxide concentration at t=0 and at t=30 mn is the Hydrogen Peroxide Decomposition Ratio (% Loss).
The initial and final level of hydrogen peroxide can be measured according to any standard technique. The following is a well-known and standard technique that was used by the inventors: 0.2-0.3 g (the exact quantity being precisely measured) of the solution to be titrated is added to 40 ml of 10% acetic acid. […] The level of hydrogen peroxide (% Peroxide) is then calculated from the following equation: [formula]
Three replicate runs are made at both t=0 and t=30 mn and then averaged to calculate the Hydrogen Peroxide Decomposition Ratio (% Loss).

[5] = log Conditional Stability Constant at pH 10 with Cu; type: physicochemical
Description: The Conditional Stability Constant is a parameter commonly used in the art to practically assess the stability of metal-chelant complex at a given pH.

Compound: O=P(O)(O)CN(CCN(CP(=O)(O)O)CP(=O)(O)O)CCN(CP(=O)(O)O)CP(=O)(O)O [DTPMP, diethylenetriamine-N,N,N′,N″,N″-penta(methylene phosphonate)]
- log K Cu [1]: 19.5
- Damage benefit vs EDTA 2% [2]: +14%
- log K Ca [3]: 7.1

Compound: O=C(O)CC(NCCNC(CC(=O)O)C(=O)O)C(=O)O (stereo not drawn) [EDDS, ethylenediamine-N,N′-disuccinic acid]
- log K Cu [1]: 18.35
- Damage after 5 cycles (cysteic acid units) [2]: 110 cysteic acid units
- Damage benefit vs EDTA 2% [2]: +33%
- oxidative hair damage prevention (in words) [2]: much less damage than hair treated with any other chelant
- Hydrogen Peroxide Decomposition Ratio (% Loss) ([4]; pH 10, 300 ppm copper sulphate, 0.026M chelant, 30 minutes): 1.5%
- Ratio Cu/Ca (log KCuL/log KCaL) [5]: 3.76
- log K Ca [3]: 4.58

Compound: O=C(O)CN(CCN(CC(=O)O)CC(=O)O)CC(=O)O [EDTA, ethylenediaminetetraacetic acid]
- log K Cu [1]: 18.78
- oxidative hair damage prevention (in words) [2]: very poor damage prevention properties
- capacity at inhibiting the red-ox chemistry of copper (in words) [4]: very good capacity at inhibiting the red-ox chemistry of copper
- log K Ca [3]: 10.65

Compound: CC(O)(P(=O)(O)O)P(=O)(O)O [HEDP, 1-hydroxyethane-1,1-diphosphonic acid]
- log K Cu [1]: 11.84
- Damage benefit vs EDTA 2% [2]: +1%
- Ratio Cu/Ca (log KCuL/log KCaL) [5]: 1.75
- log K Ca [3]: 6.0

Compound: diethylenetriaminepentaacetate [DTPA]
- log K Cu [1]: 21.4
- Damage after 5 cycles (cysteic acid units) [2]: 147 cysteic acid units
- Damage benefit vs EDTA 2% [2]: +11%
- Ratio Cu/Ca (log KCuL/log KCaL) [5]: 1.85
- log Conditional Stability Constant (pH 10) Cu [5]: 18.78
- log K Ca [3]: 10.75
